For series [1], the system named is Aspergillus sojae NBRC4239 strain. In words: Toxicity of selenium compounds: cell proliferation with alamarBlue Cell Viability Reagent. It counts as cell-based. Conditions: conidia of Aspergillus sojae NBRC4239; 0-2 mM final concentration; 30° C. for 30 hours. Here is the method:
The cytotoxicity of sodium selenite was tested as follows. To quantify cell proliferation, alamarBlue Cell Viability Reagent (Thermo Fisher Scientific) was used.
The mixture composed of 2× DPY liquid medium (2 (w/v) % polypeptone, 4 (w/v) % dextrin, 1 (w/v) % yeast extract, 1 (w/v) % KH2PO4, 0.1 (w/v) % MgSO4·7H2O; pH not adjusted), 2× alamarBlue and 2×10^4 cells/ml the conidia of Aspergillus sojae NBRC4239 strain was dispensed in the volume of 100 μl into each well of a microplate. Similarly, 100 μl of an aqueous sodium selenite solution was added to each well so that the final concentration was 0 mM, 0.125 mM, 0.25 mM, 0.5 mM, 1 mM and 2 mM. The blank without the addition of the conidia and sodium selenite solution was used as a blank.
After incubating the microplate at 30° C. for 30 hours, absorbance at 570 nm was measured. A plot of the value calculated by subtracting absorbance at 600 nm of the blank from the measurement result according to the instruction manual of alamarBlue reagent is shown in FIG. 4.
In general terms: Alamar Blue is a resazurin reagent that responds to reducing activity.

For series [2] the following is noted: known to have; no test by the applicant; cited from earlier work.

`O=[Se](O)O` [sodium selenite]: in series [1], the “degree of mycelial growth observed visually” value is given as “No difference” and the “growth inhibition (cytotoxicity, absorbance at 570 nm, FIG. 4)” value is “no growth inhibition”. With `C[N+](C)(C)[C@@H](Cc1cnc([Se-])[nH]1)C(=O)O` [selenoneine], in series [2], the “antioxidant activity relative to its thio analog, ergothioneine” value was 1,000 times.

Source of the values: US12398411B2, “Method for producing selenoneine” (KIKKOMAN CORPORATION, priority 2018, dated 2025).
